The target in experiment [1] is T1, Bone morphogenetic protein receptor type-2 (Homo sapiens) (UniProt Q13873).
T1 sequence (whole entry): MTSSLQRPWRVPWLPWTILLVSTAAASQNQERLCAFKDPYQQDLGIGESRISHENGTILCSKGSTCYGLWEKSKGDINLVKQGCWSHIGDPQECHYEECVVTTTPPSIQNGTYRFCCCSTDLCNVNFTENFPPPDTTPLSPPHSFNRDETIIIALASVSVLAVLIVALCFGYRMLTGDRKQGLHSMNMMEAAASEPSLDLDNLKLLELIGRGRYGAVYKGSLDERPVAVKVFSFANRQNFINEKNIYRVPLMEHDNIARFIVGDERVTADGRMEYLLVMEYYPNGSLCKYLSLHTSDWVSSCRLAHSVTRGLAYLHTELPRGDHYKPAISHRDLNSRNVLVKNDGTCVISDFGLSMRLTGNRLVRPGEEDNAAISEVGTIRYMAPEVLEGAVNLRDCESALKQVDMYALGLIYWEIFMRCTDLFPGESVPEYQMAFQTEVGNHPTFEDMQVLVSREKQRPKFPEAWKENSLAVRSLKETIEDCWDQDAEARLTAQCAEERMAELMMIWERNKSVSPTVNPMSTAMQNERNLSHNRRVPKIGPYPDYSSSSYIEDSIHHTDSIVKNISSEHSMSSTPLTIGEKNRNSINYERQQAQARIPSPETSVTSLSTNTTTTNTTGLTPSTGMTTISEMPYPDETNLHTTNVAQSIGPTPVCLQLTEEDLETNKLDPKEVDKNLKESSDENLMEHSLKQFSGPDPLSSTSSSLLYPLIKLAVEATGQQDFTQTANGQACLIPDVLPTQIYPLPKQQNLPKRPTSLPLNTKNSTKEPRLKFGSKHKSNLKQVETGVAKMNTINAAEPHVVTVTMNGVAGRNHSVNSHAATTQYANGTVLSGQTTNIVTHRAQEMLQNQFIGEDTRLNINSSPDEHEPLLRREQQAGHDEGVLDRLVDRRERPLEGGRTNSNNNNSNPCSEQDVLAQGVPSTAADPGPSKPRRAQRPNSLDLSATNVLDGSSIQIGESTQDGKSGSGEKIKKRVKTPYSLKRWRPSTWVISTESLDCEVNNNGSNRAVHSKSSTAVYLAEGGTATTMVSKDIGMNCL
Put plainly: Inhibition of BMPR2 (unknown origin) assessed as residual activity at 1000 nM by KINOMEscan analysis relative to control.

Experiment [2] deals with BMP-2-inducible protein kinase (Homo sapiens) (UniProt Q9NSY1). Nature of the experiment: Inhibition of BIKE (unknown origin) assessed as residual activity at 1000 nM by KINOMEscan analysis relative to control.
In experiment [3] the target is Ribosomal protein S6 kinase alpha-3 (Homo sapiens) (UniProt P51812). Nature of the experiment: Inhibition of N-terminal RSK2 kinetic domain 1 (unknown origin) assessed as residual activity at 1000 nM by KINOMEscan analysis relative to control.
Experiment [4] deals with T2, Serine/threonine-protein kinase 17B (Homo sapiens) (UniProt O94768).
T2 sequence (whole entry): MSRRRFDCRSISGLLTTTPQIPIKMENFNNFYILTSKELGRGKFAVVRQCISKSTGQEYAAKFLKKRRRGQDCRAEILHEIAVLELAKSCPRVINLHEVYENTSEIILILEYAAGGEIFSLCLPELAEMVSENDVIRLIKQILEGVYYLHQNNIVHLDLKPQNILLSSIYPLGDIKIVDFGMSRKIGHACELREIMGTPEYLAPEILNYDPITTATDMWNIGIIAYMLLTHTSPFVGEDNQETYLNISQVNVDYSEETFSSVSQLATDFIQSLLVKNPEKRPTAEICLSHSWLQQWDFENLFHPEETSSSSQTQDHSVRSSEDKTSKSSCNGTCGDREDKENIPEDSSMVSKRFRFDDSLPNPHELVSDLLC
Nature of the experiment: Inhibition of DRAK2 (unknown origin) assessed as residual activity at 1000 nM by KINOMEscan analysis relative to control.

The test system of experiment [5] is Phosphatidylinositol 4,5-bisphosphate 3-kinase catalytic subunit alpha isoform (Homo sapiens), P42336 [Q546K]. Put plainly: Inhibition of PIK3CA Q546K mutant (unknown origin) assessed as residual activity at 1000 nM by KINOMEscan analysis relative to control.
Experiment [6] has as its target T3, Serine/threonine-protein kinase 3 (Homo sapiens) (UniProt Q13188).
T3 sequence (whole entry): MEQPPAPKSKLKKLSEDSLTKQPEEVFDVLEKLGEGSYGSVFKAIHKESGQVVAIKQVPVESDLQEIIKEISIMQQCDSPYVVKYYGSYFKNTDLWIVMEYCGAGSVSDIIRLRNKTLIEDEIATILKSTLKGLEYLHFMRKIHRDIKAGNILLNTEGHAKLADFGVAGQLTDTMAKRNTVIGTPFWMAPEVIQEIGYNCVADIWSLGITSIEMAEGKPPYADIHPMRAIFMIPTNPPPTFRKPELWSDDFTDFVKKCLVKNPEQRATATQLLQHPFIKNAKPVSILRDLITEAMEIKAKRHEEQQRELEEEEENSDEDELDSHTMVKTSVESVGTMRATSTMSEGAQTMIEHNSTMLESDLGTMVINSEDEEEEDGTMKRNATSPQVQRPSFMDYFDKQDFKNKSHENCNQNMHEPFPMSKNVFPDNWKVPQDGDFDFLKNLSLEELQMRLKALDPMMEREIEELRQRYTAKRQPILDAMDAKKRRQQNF
Nature of the experiment: Inhibition of MST2 (unknown origin) assessed as residual activity at 1000 nM by KINOMEscan analysis relative to control.

In experiment [7] the target is Tyrosine-protein kinase receptor Tie-1 (Homo sapiens) (UniProt P35590). Put plainly: Inhibition of TIE1 (unknown origin) assessed as residual activity at 1000 nM by KINOMEscan analysis relative to control.
In experiment [8] the target is TRAF2 and NCK-interacting protein kinase (Homo sapiens) (UniProt Q9UKE5). Nature of the experiment: Inhibition of TNIK (unknown origin) assessed as residual activity at 1000 nM by KINOMEscan analysis relative to control.
The target in experiment [9] is Glycogen synthase kinase-3 alpha (Homo sapiens) (UniProt P49840). Nature of the experiment: Inhibition of GSK3A (unknown origin) assessed as residual activity at 1000 nM by KINOMEscan analysis relative to control.
Chain of Glycogen synthase kinase-3 alpha (Homo sapiens) (P49840 2-483 limits assumed): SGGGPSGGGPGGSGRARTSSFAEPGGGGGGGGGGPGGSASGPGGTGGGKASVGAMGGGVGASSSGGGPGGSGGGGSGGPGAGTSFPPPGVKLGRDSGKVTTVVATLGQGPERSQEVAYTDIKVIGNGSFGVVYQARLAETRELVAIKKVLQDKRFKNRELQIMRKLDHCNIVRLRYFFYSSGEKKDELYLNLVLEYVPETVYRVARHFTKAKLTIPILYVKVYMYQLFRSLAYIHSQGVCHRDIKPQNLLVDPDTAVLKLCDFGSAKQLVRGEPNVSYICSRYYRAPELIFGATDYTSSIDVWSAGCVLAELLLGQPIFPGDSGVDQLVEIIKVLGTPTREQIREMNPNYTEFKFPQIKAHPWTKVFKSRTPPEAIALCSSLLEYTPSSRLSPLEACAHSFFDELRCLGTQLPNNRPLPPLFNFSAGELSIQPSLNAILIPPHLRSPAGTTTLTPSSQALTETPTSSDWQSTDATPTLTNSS

Chain of Phosphatidylinositol 4,5-bisphosphate 3-kinase catalytic subunit alpha isoform (Homo sapiens), P42336 [Q546K] (P42336 whole entry Q546K, canonical isoform): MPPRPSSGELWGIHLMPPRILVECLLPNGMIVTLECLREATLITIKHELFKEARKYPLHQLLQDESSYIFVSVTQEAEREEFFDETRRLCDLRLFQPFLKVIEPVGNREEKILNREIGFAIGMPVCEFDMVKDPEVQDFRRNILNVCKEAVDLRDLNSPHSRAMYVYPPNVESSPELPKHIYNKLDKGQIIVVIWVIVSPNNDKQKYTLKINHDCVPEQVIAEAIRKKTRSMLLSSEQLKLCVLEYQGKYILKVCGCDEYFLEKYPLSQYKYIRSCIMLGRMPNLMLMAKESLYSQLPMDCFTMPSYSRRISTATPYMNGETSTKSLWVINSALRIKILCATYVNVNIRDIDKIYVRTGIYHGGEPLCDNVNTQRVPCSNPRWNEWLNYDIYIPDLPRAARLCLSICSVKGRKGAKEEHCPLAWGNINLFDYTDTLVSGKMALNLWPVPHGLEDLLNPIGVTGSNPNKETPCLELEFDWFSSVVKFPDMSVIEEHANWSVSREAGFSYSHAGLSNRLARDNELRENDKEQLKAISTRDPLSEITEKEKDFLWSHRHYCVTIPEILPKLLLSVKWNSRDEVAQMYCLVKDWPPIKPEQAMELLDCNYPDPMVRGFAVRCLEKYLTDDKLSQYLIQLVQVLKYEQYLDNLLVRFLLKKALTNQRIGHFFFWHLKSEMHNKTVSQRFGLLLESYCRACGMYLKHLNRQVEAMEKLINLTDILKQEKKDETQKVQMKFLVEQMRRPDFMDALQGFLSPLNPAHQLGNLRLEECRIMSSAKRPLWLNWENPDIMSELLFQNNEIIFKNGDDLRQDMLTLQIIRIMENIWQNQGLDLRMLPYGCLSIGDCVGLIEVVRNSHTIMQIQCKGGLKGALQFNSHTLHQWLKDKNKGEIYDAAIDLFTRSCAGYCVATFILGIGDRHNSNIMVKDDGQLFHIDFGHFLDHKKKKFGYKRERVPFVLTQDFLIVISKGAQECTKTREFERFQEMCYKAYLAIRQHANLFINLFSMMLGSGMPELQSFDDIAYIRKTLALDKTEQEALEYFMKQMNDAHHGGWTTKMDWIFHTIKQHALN
Chain of BMP-2-inducible protein kinase (Homo sapiens) (Q9NSY1 whole entry, looked up, the tested form may be a part): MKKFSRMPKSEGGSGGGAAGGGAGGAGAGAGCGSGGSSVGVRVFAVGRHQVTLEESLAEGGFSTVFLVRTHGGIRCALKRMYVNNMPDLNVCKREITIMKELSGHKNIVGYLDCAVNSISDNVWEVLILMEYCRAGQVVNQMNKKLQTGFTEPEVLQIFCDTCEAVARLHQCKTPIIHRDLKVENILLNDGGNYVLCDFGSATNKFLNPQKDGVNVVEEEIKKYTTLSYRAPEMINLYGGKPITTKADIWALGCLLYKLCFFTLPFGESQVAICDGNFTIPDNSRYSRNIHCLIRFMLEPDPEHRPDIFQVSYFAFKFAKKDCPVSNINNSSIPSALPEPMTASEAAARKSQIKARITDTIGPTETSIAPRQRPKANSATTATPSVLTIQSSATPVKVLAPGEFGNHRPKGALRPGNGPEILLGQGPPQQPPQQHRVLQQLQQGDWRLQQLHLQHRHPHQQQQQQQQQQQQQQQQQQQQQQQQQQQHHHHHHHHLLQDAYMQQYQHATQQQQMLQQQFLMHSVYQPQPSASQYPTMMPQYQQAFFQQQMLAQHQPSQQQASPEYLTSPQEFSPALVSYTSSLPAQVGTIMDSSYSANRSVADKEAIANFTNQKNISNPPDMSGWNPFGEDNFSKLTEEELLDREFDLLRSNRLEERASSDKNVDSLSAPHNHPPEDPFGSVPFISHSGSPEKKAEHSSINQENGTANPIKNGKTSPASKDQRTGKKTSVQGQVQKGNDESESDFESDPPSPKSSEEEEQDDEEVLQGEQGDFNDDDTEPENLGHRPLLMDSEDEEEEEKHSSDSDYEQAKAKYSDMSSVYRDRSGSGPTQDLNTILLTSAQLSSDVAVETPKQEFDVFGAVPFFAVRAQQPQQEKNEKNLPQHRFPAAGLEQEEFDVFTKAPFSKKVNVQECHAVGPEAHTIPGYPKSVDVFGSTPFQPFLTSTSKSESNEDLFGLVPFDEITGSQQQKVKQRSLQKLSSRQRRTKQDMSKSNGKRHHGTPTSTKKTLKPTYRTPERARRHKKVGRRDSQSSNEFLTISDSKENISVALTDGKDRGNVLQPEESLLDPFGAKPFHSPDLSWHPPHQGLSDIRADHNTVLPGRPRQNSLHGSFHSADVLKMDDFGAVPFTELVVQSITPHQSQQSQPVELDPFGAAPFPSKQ
Chain of Tyrosine-protein kinase receptor Tie-1 (Homo sapiens) (P35590 whole entry): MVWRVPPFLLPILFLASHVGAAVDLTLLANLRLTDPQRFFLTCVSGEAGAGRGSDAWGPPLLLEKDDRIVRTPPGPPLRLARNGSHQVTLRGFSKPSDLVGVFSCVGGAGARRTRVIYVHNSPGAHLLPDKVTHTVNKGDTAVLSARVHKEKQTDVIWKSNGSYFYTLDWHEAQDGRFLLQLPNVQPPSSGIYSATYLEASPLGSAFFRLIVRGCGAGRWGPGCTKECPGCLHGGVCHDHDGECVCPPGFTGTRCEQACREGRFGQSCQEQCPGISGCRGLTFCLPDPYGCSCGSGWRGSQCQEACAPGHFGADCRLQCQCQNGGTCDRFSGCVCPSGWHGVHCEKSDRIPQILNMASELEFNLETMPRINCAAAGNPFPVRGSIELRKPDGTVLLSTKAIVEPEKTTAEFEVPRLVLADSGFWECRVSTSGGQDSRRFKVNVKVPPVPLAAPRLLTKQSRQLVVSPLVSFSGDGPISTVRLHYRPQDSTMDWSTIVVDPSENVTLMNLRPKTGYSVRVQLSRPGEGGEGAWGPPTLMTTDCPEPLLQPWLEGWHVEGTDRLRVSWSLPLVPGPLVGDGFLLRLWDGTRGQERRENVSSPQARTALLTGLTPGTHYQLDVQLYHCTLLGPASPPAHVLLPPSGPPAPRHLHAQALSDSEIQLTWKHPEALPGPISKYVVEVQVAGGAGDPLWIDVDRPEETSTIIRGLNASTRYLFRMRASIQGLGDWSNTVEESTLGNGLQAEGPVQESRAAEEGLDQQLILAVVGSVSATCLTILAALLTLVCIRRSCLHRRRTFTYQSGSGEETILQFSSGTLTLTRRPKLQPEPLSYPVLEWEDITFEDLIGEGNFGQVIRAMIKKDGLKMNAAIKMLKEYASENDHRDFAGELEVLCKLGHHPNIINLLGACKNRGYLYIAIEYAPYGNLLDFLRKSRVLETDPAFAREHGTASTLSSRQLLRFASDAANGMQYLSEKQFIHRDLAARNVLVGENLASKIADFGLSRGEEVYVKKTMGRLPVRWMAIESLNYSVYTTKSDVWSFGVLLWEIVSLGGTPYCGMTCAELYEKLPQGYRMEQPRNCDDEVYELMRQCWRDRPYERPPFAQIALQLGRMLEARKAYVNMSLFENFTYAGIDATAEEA
Chain of Ribosomal protein S6 kinase alpha-3 (Homo sapiens) (P51812 whole entry, the tested form may be a part): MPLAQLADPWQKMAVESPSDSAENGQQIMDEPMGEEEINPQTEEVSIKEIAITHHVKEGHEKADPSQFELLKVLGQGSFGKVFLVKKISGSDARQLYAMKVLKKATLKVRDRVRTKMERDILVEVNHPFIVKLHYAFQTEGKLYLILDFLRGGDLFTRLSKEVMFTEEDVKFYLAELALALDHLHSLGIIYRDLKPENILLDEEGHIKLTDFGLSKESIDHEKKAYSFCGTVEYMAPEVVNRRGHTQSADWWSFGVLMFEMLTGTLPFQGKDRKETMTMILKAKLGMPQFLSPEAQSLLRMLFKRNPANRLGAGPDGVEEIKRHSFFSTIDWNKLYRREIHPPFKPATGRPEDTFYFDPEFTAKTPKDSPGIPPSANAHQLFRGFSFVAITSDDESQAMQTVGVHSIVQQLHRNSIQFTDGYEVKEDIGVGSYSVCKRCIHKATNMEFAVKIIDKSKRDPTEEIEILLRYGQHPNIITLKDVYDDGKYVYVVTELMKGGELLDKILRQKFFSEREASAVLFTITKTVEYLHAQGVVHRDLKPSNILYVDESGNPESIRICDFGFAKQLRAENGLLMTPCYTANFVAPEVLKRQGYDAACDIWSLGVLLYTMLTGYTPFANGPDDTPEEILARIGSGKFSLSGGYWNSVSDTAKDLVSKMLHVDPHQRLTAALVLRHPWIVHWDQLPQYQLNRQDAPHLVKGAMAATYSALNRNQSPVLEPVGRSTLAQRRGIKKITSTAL

On to `COc1cc2nc(C)nc(N[C@H](C)c3cccc(-c4cn[nH]c4)c3)c2cc1OC`, for which the Activity in experiment [1] came out at 83%; in experiment [2] it was 71%; in [3] it was 60%; in experiment [4], 67%; in experiment [5] it was 87%; in [6], 79%. Moreover, the Activity turned out to be 87% in experiment [7], 87% in experiment [8] and 95% in experiment [9].
Consider `COc1cc2ncnc(N[C@H](C)c3cccc4ccccc34)c2cc1OC`, for which the Activity in experiment [1] worked out at 89%; in [2], 100%; in [3], 95%; in experiment [4] it was 100%; in experiment [5], 83%; in experiment [6] it was 96%. Also, the figures for the Activity in experiment [7], in [8] and in experiment [9] were 100%, 100% and 70%, respectively.

Values taken from ChEMBL document CHEMBL5678818, “Discovery of potent SOS1 inhibitors that block RAS activation via disruption of the RAS-SOS1 interaction” (Proc Natl Acad Sci U S A, 2019).
